Measured values published in patent US20150210660A1, “ALICYCLIC EPOXY COMPOUND AND METHOD FOR PRODUCING SAME” (DAICEL CORPORATION, priority 2012, published 2015).

How the values were obtained:
[1] = Evaluation of reactivity with acid (stirring with 2-ethylhexanoic acid in 1,3,5-trimethylbenzene at 150° C.); assay type: physicochemical; conditions: for Oxirane oxygen content: HBr titrimetry; for Acid value: JIS K 0070
Procedure: A mixture was prepared by blending 5.2 g of the 3,4-epoxycyclohexylmethyl 3,5,5-trimethylhexanoate prepared in Example 1 (product of Example 1), 1.4 g of 2-ethylhexanoic acid (trade name Octanoic Acid, supplied by Kyowa Hakko Chemical Co., Ltd.), and 8.5 g of 1,3,5-trimethylbenzene (reagent, supplied by Wako Pure Chemical Industries, Ltd.). The mixture was stirred at 150° C. for 6 hours. The acid value and oxirane oxygen content of the mixture were measured before the stirring with heating, and 2 hours, 4 hours, and 6 hours into the stirring.
The oxirane oxygen content measurement in the evaluation of reactivity with acid was performed by HBr titrimetry in which titration was performed with a N/10 hydrogen bromide solution in acetic acid and with crystal violet as an indicator. The acid value measurement was performed in conformance with a method described in JIS K 0070.
Instead of 3,4-epoxycyclohexylmethyl 3,5,5-trimethylhexanoate, there were prepared 3,4-epoxycyclohexylmethyl(3,4-epoxy)cyclohexane carboxylate (trade name CELLOXIDE 2021P, supplied by Daicel Corporation), 4-vinylcyclohexene oxide (trade name CELLOXIDE 2000, supplied by Daicel Corporation), 1-methyl-4-(2-methyloxiranyl)-7-oxabicyclo[4.1.0]heptane (trade name CELLOXIDE 3000, supplied by Daicel Corporation), D-limonene oxide (supplied by Nippon Terpene Chemicals, Inc.), and di-2-ethylhexyl epoxyhexahydrophthalate (trade name SANSO CIZER E-PS, supplied by New Japan Chemical Co., Ltd.). These epoxides were used in charged amounts given in Table 1 and subjected to evaluation of reactivity with an acid (2-ethylhexanoic acid) by the above procedure.
Table 2 also gives acid residual percentages as calculated from the acid values. The acid residual percentages are percentages of the acid present in the system (in the mixture) at the individual timings (after 2 hours, 4 hours, and 6 hours) in which the amount of the acid present in the system before the stirring with heating (0 hour) was defined as 100%.

[2] = Volatility evaluation: boiling point measurement under reduced pressure using a distillator; assay type: physicochemical
Procedure: The 3,4-epoxycyclohexylmethyl 3,5,5-trimethylhexanoate prepared in Example 1 was subjected to boiling point measurement under reduced pressure using a distillator.
The measured boiling points at the individual pressures were plotted on a logarithmic graph (semilogarithmic graph with the logarithmic scale indicating the pressure) to give an approximate curve. Using the approximate curve, a boiling point of the product at normal atmospheric pressure (760 Torr; 101325 Pa) was calculated and found to be 307° C.

[3] = stirring time 0 hr (before heating), defined as 100%
[4] = stirring time 0 hr (before heating)
[5] = stirring time 2 hrs at 150° C., calculated from acid values, 0 hr = 100%
[6] = stirring time 4 hrs at 150° C., calculated from acid values, 0 hr = 100%
[7] = stirring time 6 hrs at 150° C., calculated from acid values, 0 hr = 100%

SMILES | Acid residual percentage [1, 3] | Oxirane oxygen content [1, 4] | Acid value [1, 4] | Oxirane oxygen content ([1]; stirring time 2 hrs at 150° C.) | Acid value ([1]; stirring time 2 hrs at 150° C.) | Acid residual percentage [1, 5] | Oxirane oxygen content ([1]; stirring time 4 hrs at 150° C.) | Acid value ([1]; stirring time 4 hrs at 150° C.) | Acid residual percentage [1, 6] | Oxirane oxygen content ([1]; stirring time 6 hrs at 150° C.) | Acid value ([1]; stirring time 6 hrs at 150° C.) | Acid residual percentage [1, 7] | acid-scavenging capability (reactivity with the acid) ([1]; as compared with the other epoxides of Table 2) | boiling point at normal atmospheric pressure ([2]; 760 Torr, 101325 Pa, calculated from approximate curve of the measured boiling points) | boiling point ([2]; at 11 Torr (1467 Pa)) | boiling point ([2]; at 31 Torr (4133 Pa)) | boiling point ([2]; at 50 Torr (6666 Pa))
CCCCC(CC)COC(=O)C1CC2OC2CC1C(=O)OCC(CC)CCCC (centres unmarked) [SANSO CIZER E-PS, di-2-ethylhexyl epoxyhexahydrophthalate] | 100% | 1.84% | 38.13 KOH-mg/g | 1.72% | 33.80 KOH-mg/g | 89% | 1.63% | 32.16 KOH-mg/g | 84% | 1.53% | 27.97 KOH-mg/g | 73% | – | – | – | – | –
O=C(OCC1CCC2OC2C1)C1CCC2OC2C1 (centres unmarked) [CELLOXIDE 2021P, 3,4-epoxycyclohexylmethyl(3,4-epoxy)cyclohexane carboxylate] | 100% | 2.00% | 37.56 KOH-mg/g | 1.51% | 21.23 KOH-mg/g | 57% | 1.33% | 14.54 KOH-mg/g | 39% | 1.11% | 11.22 KOH-mg/g | 30% | – | – | – | – | –
C=C(C)C1CCC2(C)OC2C1 [D-Limonene oxide, D-limonene oxide] | 100% | 1.92% | 38.36 KOH-mg/g | 1.56% | 26.27 KOH-mg/g | 68% | 1.38% | 22.44 KOH-mg/g | 58% | 1.25% | 19.15 KOH-mg/g | 50% | – | – | – | – | –
C=CC1CCC2OC2C1 (centres unmarked) [CELLOXIDE 2000, 4-vinylcyclohexene oxide] | 100% | 1.92% | 35.90 KOH-mg/g | 146% | 23.80 KOH-mg/g | 66% | 1.25% | 17.54 KOH-mg/g | 49% | 1.15% | 12.90 KOH-mg/g | 36% | – | – | – | – | –
CC(CC(=O)OCC1CCC2OC2C1)CC(C)(C)C (centres unmarked) [Product of Example 1, 3,4-epoxycyclohexylmethyl 3,5,5-trimethylhexanoate] | 100% | 1.82% | 37.66 KOH-mg/g | 1.20% | 20.32 KOH-mg/g | 54% | 1.00% | 13.13 KOH-mg/g | 35% | 0.89% | 9.98 KOH-mg/g | 27% | higher acid-scavenging capability | 307 °C | 191 °C | 218 °C | 233 °C
CC1(C2CCC3(C)OC3C2)CO1 (centres unmarked) [CELLOXIDE 3000, 1-methyl-4-(2-methyloxiranyl)-7-oxabicyclo[4.1.0]heptane] | 100% | 1.81% | 36.04 KOH-mg/g | 0.91% | 24.52 KOH-mg/g | 68% | 0.71% | 22.04 KOH-mg/g | 61% | 0.61% | 18.65 KOH-mg/g | 52% | – | – | – | – | –
